According to patent EP0241837B1, “Stable injectable antiemetic compositions” (Bristol-Myers Squibb Company, priority 1986, dated 1987):
Read-outs that look alike come from different tables or passages of the source.

Experiment: Stability of Compound Ia (5 mg/ml) in aqueous solutions on storage at 56°C
Assay type: physicochemical
Settings: for % Remaining (8 weeks): 80640 min; for remaining at 168 h: 1 week; for remaining at 336 h: 2 weeks
Description: The compounds of Formula I in aqueous, isotonic (isotonicity adjusted with sodium chloride and/or dextrose) and buffered ([…], pH 5.7 and 6.5) formulations containing the equivalent of 5 mg of free base of a compound of Formula I per ml have been found unsuitable for long term shelf life. Typical isotonic and buffered formulations lost 33% and 40%, respectively, of their potency following storage for eight weeks at 56°C. […] Tables 1 and 2 give the results of stability tests on the compound of Formula Ia in water and in isotonic saline, and in citrate buffers, respectively.
Tables 3 and 4, below, provide stability data for some of the stable injectable formulations of the present invention.

[1] = 0.01m citrate buffer, pH 5.7, 5 mg/ml in 0.01M citrate buffer pH 5.7, 56°C, average of duplicate samples, read-out: % Remaining(a) (pH 5.7)
[2] = 0.01m citrate buffer, pH 6.5, 5 mg/ml in 0.01M citrate buffer pH 6.5, 56°C, average of duplicate samples, read-out: % Remaining(a) (pH 6.5)
[3] = isotonic saline, 5mg/ml in isotonic saline, 56°C, average of duplicate samples, read-out: % Remaining(a) (Isotonic Saline)
[4] = water, 5mg/ml in water, 56°C, average of duplicate samples, read-out: % Remaining(a) (Water)

Structure (SMILES): CCN(CC)CCNC(=O)c1cc(Cl)c(N)cc1OC(C)C(C)=O (stereo not shown) [Compound Ia, 4-amino-2-(2-butanon-3-yl)-oxy-5-chloro-N-[2-(diethylamino)ethyl]benzamide]
- % Remaining(a) (pH 5.7) (5 mg/ml in 0.01M citrate buffer pH 5.7, 56°C, Initial, average of duplicate samples): 100.0%
- % Remaining(a) (pH 6.5) (5 mg/ml in 0.01M citrate buffer pH 6.5, 56°C, Initial, average of duplicate samples): 100.0%
- % Remaining(a) (Isotonic Saline) (5mg/ml in isotonic saline, 56°C, Initial, average of duplicate samples): 100.0%
- % Remaining(a) (Water) (5mg/ml in water, 56°C, Initial, average of duplicate samples): 100.0%
- % Remaining (8 weeks) (5mg/ml, Ethanol/Water (v/v) 0/100, calculated dielectric constant 78.5, 56°C, 8 weeks): 89.4%
- % Remaining (8 weeks) (5mg/ml, Ethanol/Water (v/v) 25/75, calculated dielectric constant 64.9, 56°C, 8 weeks): 97.5%
- % Remaining (8 weeks) (5mg/ml, Ethanol/Water (v/v) 50/50, calculated dielectric constant 51.4, 56°C, 8 weeks): 99.1%
- remaining at 168 h [1]: 94.8%
- remaining at 336 h [1]: 87.8%
- remaining at 672 h (0.01m citrate buffer, pH 5.7, 5 mg/ml in 0.01M citrate buffer pH 5.7, 56°C, 4 weeks, average of duplicate samples, read-out: % Remaining(a) (pH 5.7)): 77.2%
- remaining at 1344 h (0.01m citrate buffer, pH 5.7, 5 mg/ml in 0.01M citrate buffer pH 5.7, 56°C, 8 weeks, average of duplicate samples, read-out: % Remaining(a) (pH 5.7)): 58.9%
- remaining at 168 h [2]: 93.6%
- remaining at 336 h [2]: 87.9%
- remaining at 672 h (0.01m citrate buffer, pH 6.5, 5 mg/ml in 0.01M citrate buffer pH 6.5, 56°C, 4 weeks, average of duplicate samples, read-out: % Remaining(a) (pH 6.5)): 77.5%
- remaining at 1344 h (0.01m citrate buffer, pH 6.5, 5 mg/ml in 0.01M citrate buffer pH 6.5, 56°C, 8 weeks, average of duplicate samples, read-out: % Remaining(a) (pH 6.5)): 60.3%
- remaining at 672 h (5% (w/v) glycerol, 5mg/ml, solvent 5% (w/v) Glycerol, calculated dielectric constant 76.3, 56°C, 4 weeks, read-out: % Remaining (4 weeks)): 95.1%
- remaining at 1344 h (5% (w/v) glycerol, 5mg/ml, solvent 5% (w/v) Glycerol, calculated dielectric constant 76.3, 56°C, 8 weeks, read-out: %Remaining (8 weeks)): 90.9%
- remaining at 672 h (15% (w/v) glycerol, 5mg/ml, solvent 15% (w/v) Glycerol, calculated dielectric constant 71.8, 56°C, 4 weeks, read-out: % Remaining (4 weeks)): 96.5%
- remaining at 1344 h (15% (w/v) glycerol, 5mg/ml, solvent 15% (w/v) Glycerol, calculated dielectric constant 71.8, 56°C, 8 weeks, read-out: %Remaining (8 weeks)): 94.2%
- remaining at 672 h (25% (w/v) glycerol, 5mg/ml, solvent 25% (w/v) Glycerol, calculated dielectric constant 71.4, 56°C, 4 weeks, read-out: % Remaining (4 weeks)): 96.8%
- remaining at 1344 h (25% (w/v) glycerol, 5mg/ml, solvent 25% (w/v) Glycerol, calculated dielectric constant 71.4, 56°C, 8 weeks, read-out: %Remaining (8 weeks)): 95.3%
- remaining at 672 h (25% (w/v) propylene glycol, 5mg/ml, solvent 25% (w/v) Propylene Glycol, calculated dielectric constant 67.3, 56°C, 4 weeks, read-out: % Remaining (4 weeks)): 97.7%
- remaining at 1344 h (25% (w/v) propylene glycol, 5mg/ml, solvent 25% (w/v) Propylene Glycol, calculated dielectric constant 67.3, 56°C, 8 weeks, read-out: %Remaining (8 weeks)): 96.8%
- remaining at 672 h (ethanol/water 0/100, 5mg/ml, Ethanol/Water (v/v) 0/100, calculated dielectric constant 78.5, 56°C, 4 weeks, read-out: % Remaining (4 weeks)): 94.9%
- remaining at 672 h (ethanol/water 25/75, 5mg/ml, Ethanol/Water (v/v) 25/75, calculated dielectric constant 64.9, 56°C, 4 weeks, read-out: % Remaining (4 weeks)): 98.7%
- remaining at 672 h (ethanol/water 50/50, 5mg/ml, Ethanol/Water (v/v) 50/50, calculated dielectric constant 51.4, 56°C, 4 weeks, read-out: % Remaining (4 weeks)): 99.5%
- remaining at 672 h (ethanol/water 75/25, 5mg/ml, Ethanol/Water (v/v) 75/25, calculated dielectric constant 37.8, 56°C, 4 weeks, read-out: % Remaining (4 weeks)): 99.6%
- remaining at 168 h [3]: 96%
- remaining at 336 h [3]: 91.6%
- remaining at 672 h (isotonic saline, 5mg/ml in isotonic saline, 56°C, 4 weeks, average of duplicate samples, read-out: % Remaining(a) (Isotonic Saline)): 83.5%
- remaining at 1344 h (isotonic saline, 5mg/ml in isotonic saline, 56°C, 8 weeks, average of duplicate samples, read-out: % Remaining(a) (Isotonic Saline)): 66.9%
- remaining at 168 h [4]: 97.4%
- remaining at 336 h [4]: 95.5%
- remaining at 672 h (water, 5mg/ml in water, 56°C, 4 weeks, average of duplicate samples, read-out: % Remaining(a) (Water)): 90.8%
- remaining at 1344 h (water, 5mg/ml in water, 56°C, 8 weeks, average of duplicate samples, read-out: % Remaining(a) (Water)): 80.5%
- remaining at 672 h (water, 5mg/ml, solvent Water, calculated dielectric constant 78.5, 56°C, 4 weeks (Table 4), read-out: % Remaining (4 weeks)): 94.9%
- remaining at 1344 h (water, 5mg/ml, solvent Water, calculated dielectric constant 78.5, 56°C, 8 weeks (Table 4), read-out: %Remaining (8 weeks)): 88.1%
